The values that follow come from ChEMBL document CHEMBL3046216, “Synthesis, biological evaluation and QSAR study of a series of substituted quinazolines as antimicrobial agents” (2013).

Common to all, as to assay type: functional
In one test the test system is Bacillus subtilis. The test is described as follows: Antimicrobial activity against Bacillus subtilis ATCC 6633 assessed as growth inhibition after 24 hr by NCCLS broth dilution method.
The test system of another test is Staphylococcus aureus. The test is described as follows: Antimicrobial activity against Staphylococcus aureus ATCC 25923 assessed as growth inhibition after 24 hr by NCCLS broth dilution method.
The subject of a further test is Escherichia coli. The test is described as follows: Antimicrobial activity against Escherichia coli ATCC 25922 assessed as growth inhibition after 24 hr by NCCLS broth dilution method.
In a further test the test system is Pseudomonas aeruginosa. Nature of the test: Antimicrobial activity against Pseudomonas aeruginosa ATCC 27853 assessed as growth inhibition after 24 hr by NCCLS broth dilution method.

Converted amounts (≈) assume the structure as drawn. The source made the active and inactive calls. The calls are words filed in the database; no cut-off is given here.

As for `Cc1cccc(NC(=O)Nc2cc3c(Sc4nnc(-c5cccnc5)o4)ncnc3cc2N2CCN(C)CC2)c1`, the MIC entry with Bacillus subtilis, with Staphylococcus aureus, in the test on Escherichia coli and with Pseudomonas aeruginosa was “inactive” each time. Further, the minimal inhibitory concentration (MIC) came to 25 µg/mL (≈ 45.2 µM) with Bacillus subtilis (ATCC 6633, 24 h); 50 µg/mL (≈ 90.3 µM) in the test with Staphylococcus aureus (ATCC 25923, 24 h); 25 µg/mL (≈ 45.2 µM) in the test with Escherichia coli (ATCC 25922, 24 h); 50 µg/mL (≈ 90.3 µM) in the test with Pseudomonas aeruginosa (ATCC 27853, 24 h).
On to `Cc1cccc(NC(=S)Nc2ccc3ncnc(Sc4nnc(-c5cccnc5)o4)c3c2)c1`, for which the MIC entry in the test on Bacillus subtilis, in the test with Staphylococcus aureus, in the test with Escherichia coli and in the test with Pseudomonas aeruginosa was “inactive” throughout. Further, the MIC worked out at 75 µg/mL (≈ 159 µM) with Bacillus subtilis (ATCC 6633, 24 h); 75 µg/mL (≈ 159 µM) in the test on Staphylococcus aureus (ATCC 25923, 24 h); 50 µg/mL (≈ 106 µM) with Escherichia coli (ATCC 25922, 24 h); 100 µg/mL (≈ 212 µM) with Pseudomonas aeruginosa (ATCC 27853, 24 h).
`Cc1ccccc1NC(=S)Nc1cc2c(Sc3nnc(-c4cccnc4)o3)ncnc2cc1N1CCN(C)CC1`: the MIC entry with Bacillus subtilis, in the test on Staphylococcus aureus, in the test with Escherichia coli and in the test on Pseudomonas aeruginosa was “inactive” in each case. In addition, the MIC with Bacillus subtilis (ATCC 6633, 24 h) came out at 75 µg/mL (≈ 132 µM); in the test on Staphylococcus aureus (ATCC 25923, 24 h), 50 µg/mL (≈ 87.8 µM); in the test with Escherichia coli (ATCC 25922, 24 h), 100 µg/mL (≈ 176 µM); in the test with Pseudomonas aeruginosa (ATCC 27853, 24 h) it was 25 µg/mL (≈ 43.9 µM).
As for `Cc1ccccc1NC(=O)Nc1cc2c(Sc3nnc(-c4cccnc4)o3)ncnc2cc1N1CCN(C)CC1`, the MIC result in the test on Bacillus subtilis, in the test with Staphylococcus aureus, with Escherichia coli and in the test with Pseudomonas aeruginosa was “inactive” in each case. The MIC in the test on Bacillus subtilis (ATCC 6633, 24 h) stood at 100 µg/mL (≈ 181 µM); with Staphylococcus aureus (ATCC 25923, 24 h) it was 12.5 µg/mL (≈ 22.6 µM); in the test with Escherichia coli (ATCC 25922, 24 h), 50 µg/mL (≈ 90.3 µM); with Pseudomonas aeruginosa (ATCC 27853, 24 h), 100 µg/mL (≈ 181 µM).
`Cc1cccc(NC(=O)Nc2ccc3ncnc(Sc4nnc(-c5cccnc5)o4)c3c2)c1`: the MIC result with Bacillus subtilis, in the test with Staphylococcus aureus, in the test on Escherichia coli and in the test with Pseudomonas aeruginosa was “inactive” in each case. The MIC with Bacillus subtilis (ATCC 6633, 24 h) was 25 µg/mL (≈ 54.9 µM); in the test on Staphylococcus aureus (ATCC 25923, 24 h), 25 µg/mL (≈ 54.9 µM); with Escherichia coli (ATCC 25922, 24 h), 12.5 µg/mL (≈ 27.4 µM); in the test with Pseudomonas aeruginosa (ATCC 27853, 24 h), 50 µg/mL (≈ 110 µM).
Regarding `CC1(C)S[C@@H]2[C@H](NC(=O)[C@H](N)c3ccccc3)C(=O)N2[C@H]1C(=O)O.O.O.O` [AMPICILLIN TRIHYDRATE], the MIC result with Bacillus subtilis, in the test with Staphylococcus aureus, in the test on Escherichia coli and with Pseudomonas aeruginosa was “inactive” each time. For the same molecule, the MIC was found to be 0.25 µg/mL with Bacillus subtilis (ATCC 6633, 24 h); 0.05 µg/mL with Staphylococcus aureus (ATCC 25923, 24 h); 10 µg/mL with Escherichia coli (ATCC 25922, 24 h).
With `O=C(Nc1ccc(Cl)cc1)Nc1ccc2ncnc(Sc3nnc(-c4cccnc4)o3)c2c1`, the MIC result with Bacillus subtilis, in the test with Staphylococcus aureus, in the test on Escherichia coli and in the test with Pseudomonas aeruginosa was “inactive” throughout. For the same molecule, the MIC in the test with Bacillus subtilis (ATCC 6633, 24 h) came out at 12.5 µg/mL (≈ 26.3 µM); in the test on Staphylococcus aureus (ATCC 25923, 24 h), 6.25 µg/mL (≈ 13.1 µM); with Escherichia coli (ATCC 25922, 24 h) it was 75 µg/mL (≈ 158 µM); in the test with Pseudomonas aeruginosa (ATCC 27853, 24 h), 25 µg/mL (≈ 52.5 µM).
With `CC1(C)S[C@@H]2[C@H](NC(=O)Cc3ccccc3)C(=O)N2[C@H]1C(=O)O` [PENICILLIN G], the MIC entry in the test on Bacillus subtilis, in the test on Staphylococcus aureus, with Escherichia coli and with Pseudomonas aeruginosa was “inactive” each time. The MIC in the test with Bacillus subtilis (ATCC 6633, 24 h) was 1.56 µg/mL (≈ 4.67 µM); in the test with Staphylococcus aureus (ATCC 25923, 24 h), 1.56 µg/mL (≈ 4.67 µM); in the test on Escherichia coli (ATCC 25922, 24 h), 6.25 µg/mL (≈ 18.7 µM); in the test on Pseudomonas aeruginosa (ATCC 27853, 24 h), 12.5 µg/mL (≈ 37.4 µM).
For the molecule `Cc1ccccc1NC(=O)Nc1ccc2ncnc(Sc3nnc(-c4cccnc4)o3)c2c1`, the MIC result with Bacillus subtilis, with Staphylococcus aureus, in the test on Escherichia coli and in the test on Pseudomonas aeruginosa was “inactive” throughout. The MIC in the test on Bacillus subtilis (ATCC 6633, 24 h) is 50 µg/mL (≈ 110 µM); in the test on Staphylococcus aureus (ATCC 25923, 24 h) it was 25 µg/mL (≈ 54.9 µM); in the test with Escherichia coli (ATCC 25922, 24 h), 25 µg/mL (≈ 54.9 µM); in the test on Pseudomonas aeruginosa (ATCC 27853, 24 h), 75 µg/mL (≈ 165 µM).
Consider `S=C(Nc1ccc(Cl)cc1)Nc1ccc2ncnc(Sc3nnc(-c4cccnc4)o3)c2c1`, for which the MIC result in the test on Bacillus subtilis, in the test on Staphylococcus aureus, in the test on Escherichia coli and in the test on Pseudomonas aeruginosa was “inactive” in each case. Also, the MIC in the test with Bacillus subtilis (ATCC 6633, 24 h) was found to be 12.5 µg/mL (≈ 25.4 µM); in the test with Staphylococcus aureus (ATCC 25923, 24 h), 25 µg/mL (≈ 50.8 µM); with Escherichia coli (ATCC 25922, 24 h), 25 µg/mL (≈ 50.8 µM); in the test with Pseudomonas aeruginosa (ATCC 27853, 24 h) it was 100 µg/mL (≈ 203 µM).
In the case of `CN1CCN(c2cc3ncnc(Sc4nnc(-c5cccnc5)o4)c3cc2NC(=O)Nc2ccccc2Cl)CC1`, the MIC entry in the test on Bacillus subtilis, in the test on Staphylococcus aureus, in the test with Escherichia coli and in the test with Pseudomonas aeruginosa was “inactive” throughout. Besides, the MIC was 50 µg/mL (≈ 87.1 µM) in the test with Bacillus subtilis (ATCC 6633, 24 h); 25 µg/mL (≈ 43.5 µM) with Staphylococcus aureus (ATCC 25923, 24 h); 50 µg/mL (≈ 87.1 µM) with Escherichia coli (ATCC 25922, 24 h); 100 µg/mL (≈ 174 µM) in the test with Pseudomonas aeruginosa (ATCC 27853, 24 h).
Regarding `CN1CCN(c2cc3ncnc(Sc4nnc(-c5cccnc5)o4)c3cc2NC(=S)Nc2ccccc2Cl)CC1`, the MIC result in the test on Bacillus subtilis, with Staphylococcus aureus, with Escherichia coli and in the test on Pseudomonas aeruginosa was “inactive” each time. Also, the MIC in the test with Bacillus subtilis (ATCC 6633, 24 h) was 6.25 µg/mL (≈ 10.6 µM); with Staphylococcus aureus (ATCC 25923, 24 h), 25 µg/mL (≈ 42.4 µM); with Escherichia coli (ATCC 25922, 24 h), 25 µg/mL (≈ 42.4 µM); with Pseudomonas aeruginosa (ATCC 27853, 24 h), 12.5 µg/mL (≈ 21.2 µM).
Consider `CN1CCN(c2cc3ncnc(Sc4nnc(-c5cccnc5)o4)c3cc2NC(=O)NC2CCCCC2)CC1`, for which the MIC result in the test with Bacillus subtilis, in the test on Staphylococcus aureus, in the test on Escherichia coli and in the test with Pseudomonas aeruginosa was “inactive” each time. Also, the MIC worked out at 12.5 µg/mL (≈ 22.9 µM) in the test with Bacillus subtilis (ATCC 6633, 24 h); 50 µg/mL (≈ 91.6 µM) in the test on Staphylococcus aureus (ATCC 25923, 24 h); 25 µg/mL (≈ 45.8 µM) with Escherichia coli (ATCC 25922, 24 h); 50 µg/mL (≈ 91.6 µM) in the test on Pseudomonas aeruginosa (ATCC 27853, 24 h).
For `CN1CCN(c2cc3ncnc(Sc4nnc(-c5cccnc5)o4)c3cc2NC(=S)NC2CCCCC2)CC1`, the MIC entry in the test with Bacillus subtilis, in the test on Staphylococcus aureus, in the test with Escherichia coli and in the test on Pseudomonas aeruginosa was “inactive” throughout. Also, the MIC with Bacillus subtilis (ATCC 6633, 24 h) amounted to 75 µg/mL (≈ 134 µM); in the test on Staphylococcus aureus (ATCC 25923, 24 h), 100 µg/mL (≈ 178 µM); with Escherichia coli (ATCC 25922, 24 h), 25 µg/mL (≈ 44.5 µM); in the test with Pseudomonas aeruginosa (ATCC 27853, 24 h), 50 µg/mL (≈ 89 µM).
With `S=C(Nc1ccccc1)Nc1ccc2ncnc(Sc3nnc(-c4cccnc4)o3)c2c1`, the MIC entry in the test on Bacillus subtilis, in the test on Staphylococcus aureus, in the test with Escherichia coli and in the test with Pseudomonas aeruginosa was “inactive” in each case. Further, the minimal inhibitory concentration (MIC) in the test on Bacillus subtilis (ATCC 6633, 24 h) came to 75 µg/mL (≈ 164 µM); with Staphylococcus aureus (ATCC 25923, 24 h) it was 50 µg/mL (≈ 109 µM); with Escherichia coli (ATCC 25922, 24 h) it was 50 µg/mL (≈ 109 µM); with Pseudomonas aeruginosa (ATCC 27853, 24 h) it was 100 µg/mL (≈ 219 µM).
For `Fc1ccc(NC(=S)Nc2ccc3ncnc(Sc4nnc(-c5cccnc5)o4)c3c2)cc1`, the MIC result with Bacillus subtilis, with Staphylococcus aureus, in the test with Escherichia coli and in the test on Pseudomonas aeruginosa was “inactive” in each case. For the same molecule, the MIC in the test with Bacillus subtilis (ATCC 6633, 24 h) came to 6.25 µg/mL (≈ 13.1 µM); in the test on Staphylococcus aureus (ATCC 25923, 24 h), 6.25 µg/mL (≈ 13.1 µM); with Escherichia coli (ATCC 25922, 24 h), 12.5 µg/mL (≈ 26.3 µM); in the test with Pseudomonas aeruginosa (ATCC 27853, 24 h) it was 50 µg/mL (≈ 105 µM).
As to `CN1CCN(c2cc3ncnc(Sc4nnc(-c5cccnc5)o4)c3cc2NC(=S)Nc2ccccc2)CC1`, the MIC entry in the test with Bacillus subtilis, in the test with Staphylococcus aureus, in the test with Escherichia coli and in the test on Pseudomonas aeruginosa was “inactive” throughout. Moreover, the MIC with Bacillus subtilis (ATCC 6633, 24 h) came to 25 µg/mL (≈ 45 µM); with Staphylococcus aureus (ATCC 25923, 24 h), 50 µg/mL (≈ 90 µM); in the test with Escherichia coli (ATCC 25922, 24 h) it was 25 µg/mL (≈ 45 µM); in the test with Pseudomonas aeruginosa (ATCC 27853, 24 h), 50 µg/mL (≈ 90 µM).
